# Experimental data taken from ChEMBL document CHEMBL2040800 (J Med Chem, 2012).
# Activity calls are given as the source filed them. The calls are words filed in the database; no cut-off is given here.
# What was measured:
# [1] = Kinetic solubility of the compound in phosphate buffer after 30 mins by nephelometry at pH 6.5; format: physicochemical; conditions: read-out: Kinetic_solubility
# [2] = Cmax in Sprague-Dawley rat at 21.7 mg/kg, po; format: ADME, organism-based; parameters: dose 21.7 mg/kg, route oral; conditions: in vivo
# [3] = Apparent terminal half life in Sprague-Dawley rat at […], iv; format: ADME, organism-based; parameters: dose 4.7 mg/kg, route intravenous; conditions: in vivo, read-out: betat1/2(app) (converted)
# [4] = Total plasma clearance in Sprague-Dawley rat at […], iv; format: ADME, organism-based; parameters: dose 4.7 mg/kg, route intravenous
# [5] = Intrinsic clearance in human liver microsomes at 1 uM up to 60 mins; format: ADME, Microsome; conditions: read-out: CLH
# [6] = AUC (0 to infinity) in Sprague-Dawley rat at […], iv; format: ADME, organism-based; parameters: time infinity, dose 4.7 mg/kg, route intravenous; conditions: plasma
# [7] = system: Plasmodium berghei; test: Antimalarial activity against Plasmodium berghei ANKA expressing GFP infected in Sprague-Dawley rat assessed as reduction in parasitemia at 10 mg/kg, po administered as single dose measured on day 3 post-infection by flow cytometry; format: functional; parameters: scale not given: the % may be the effect or the level left
# [8] = system: Plasmodium berghei; test: Antimalarial activity against Plasmodium berghei ANKA expressing GFP infected in Sprague-Dawley rat assessed as mean survival days of host at 10 mg/kg, po administered as single dose; format: functional
# [9] = system: Rattus norvegicus; test: Toxicity in Sprague-Dawley rat assessed as impaired coordination at 30 mg/kg, po administered as single dose; format: organism-based; parameters: dose 30 mg/kg, route oral; conditions: in vivo
# [10] = AUC (0 to infinity) in Sprague-Dawley rat at 21.7 mg/kg, po; format: ADME, organism-based; parameters: time infinity, dose 21.7 mg/kg, route oral; conditions: plasma
# [11] = Half life in human liver microsomes at 1 uM; format: ADME, Microsome
# [12] = system: Plasmodium falciparum; test: Antimalarial activity against chloroquine-sensitive Plasmodium falciparum NF54 after 24 hrs by hypoxanthine incorporation assay; format: functional, organism-based; conditions: NF54, 24 h
# [13] = Partition coefficient, log D of the compound at pH 7.4 by phase gradient HPLC analysis; format: physicochemical; conditions: octanol/water
# [14] = Tmax in Sprague-Dawley rat at 21.7 mg/kg, po; format: ADME, organism-based; parameters: dose 21.7 mg/kg, route oral; conditions: in vivo
# [15] = Oral bioavailability in Sprague-Dawley rat at 21.7 mg/kg; format: ADME, organism-based; conditions: in vivo
# [16] = system: Rattus norvegicus; test: Toxicity in Sprague-Dawley rat assessed as impaired coordination at 50 mg/kg, po administered as 4 doses measured post-third dose; format: organism-based; parameters: dose 50 mg/kg, route oral; conditions: in vivo
# [17] = system: Plasmodium berghei; test: Antimalarial activity against Plasmodium berghei ANKA expressing GFP infected in Sprague-Dawley rat assessed as mean survival days of host at 30 mg/kg, po administered as single dose; format: functional
# [18] = system: Plasmodium berghei; test: Antimalarial activity against Plasmodium berghei ANKA expressing GFP infected in Sprague-Dawley rat assessed as reduction in parasitemia at 30 mg/kg, po administered as single dose measured on day 3 post-infection by flow cytometry; format: functional; parameters: scale not given: the % may be the effect or the level left
# [19] = Plasma protein binding in human by reverse phase gradient HPLC analysis; format: ADME, cell-free; conditions: read-out: PPB (converted)
# [20] = system: Plasmodium falciparum; test: Antimalarial activity against chloroquine-resistant Plasmodium falciparum K1 after 24 hrs by hypoxanthine incorporation assay; format: functional, organism-based; conditions: K1, 24 h
# [21] = Volume of distribution at steady state in Sprague-Dawley rat at […], iv; format: ADME, organism-based; parameters: dose 4.7 mg/kg, route intravenous; conditions: in vivo, read-out: Vdss
# [22] = Apparent terminal half life in Sprague-Dawley rat at 21.7 mg/kg, po; format: ADME, organism-based; parameters: dose 21.7 mg/kg, route oral; conditions: in vivo, read-out: betat1/2(app) (converted)
# [23] = Tmax in Sprague-Dawley rat at 22.3 mg/kg, po; format: ADME, organism-based; parameters: dose 22.3 mg/kg, route oral; conditions: in vivo
# [24] = system: Plasmodium berghei; test: Antimalarial activity against Plasmodium berghei ANKA expressing GFP infected in po dosed Sprague-Dawley rat assessed as reduction in parasitemia administered as single dose measured on day 3 post-infection by flow cytometry; format: functional; conditions: 72 h
# [25] = AUC (0 to infinity) in Sprague-Dawley rat at 5 mg/kg, po; format: ADME, organism-based; parameters: time infinity, dose 5 mg/kg, route oral; conditions: plasma
# [26] = system: Plasmodium berghei; test: Antimalarial activity against Plasmodium berghei ANKA expressing GFP infected in Sprague-Dawley rat assessed as mean survival days of host at 50 mg/kg, po administered as 4 doses; format: functional
# [27] = system: Plasmodium berghei; test: Antimalarial activity against Plasmodium berghei ANKA expressing GFP infected in Sprague-Dawley rat assessed as mean survival days of host at 100 mg/kg, po administered as single dose; format: functional
# [28] = AUC (0 to infinity) in Sprague-Dawley rat at 22.3 mg/kg, po; format: ADME, organism-based; parameters: time infinity, dose 22.3 mg/kg, route oral; conditions: plasma
# [29] = system: Plasmodium berghei; test: Antimalarial activity against Plasmodium berghei ANKA expressing GFP infected in Sprague-Dawley rat assessed as reduction in parasitemia at 50 mg/kg, po administered as 4 doses measured on day 4 post-infection by flow cytometry; format: functional; parameters: scale not given: the % may be the effect or the level left
# [30] = Cmax in Sprague-Dawley rat at 5 mg/kg, po; format: ADME, organism-based; parameters: dose 5 mg/kg, route oral; conditions: in vivo
# [31] = system: Plasmodium berghei; test: Antimalarial activity against Plasmodium berghei ANKA expressing GFP infected in Sprague-Dawley rat assessed as host survival at 3 mg/kg, po administered as single dose measured 6 days post-infection; format: functional, organism-based; parameters: dose 3 mg/kg
# [32] = system: Plasmodium berghei; test: Antimalarial activity against Plasmodium berghei ANKA expressing GFP infected in Sprague-Dawley rat assessed as total cure from parasite at 50 mg/kg, po administered as 4 doses measured on day 30 post-infection by flow cytometry; format: functional, organism-based; parameters: dose 50 mg/kg
# [33] = Total blood clearance in Sprague-Dawley rat at […], iv; format: ADME, organism-based; parameters: dose 4.7 mg/kg, route intravenous; conditions: whole blood
# [34] = system: Plasmodium berghei; test: Antimalarial activity against Plasmodium berghei ANKA expressing GFP infected in Sprague-Dawley rat assessed as mean survival days of host at 3 mg/kg, po administered as single dose; format: functional
# [35] = Tmax in Sprague-Dawley rat at 5 mg/kg, po; format: ADME, organism-based; parameters: dose 5 mg/kg, route oral; conditions: in vivo
# [36] = Cmax in Sprague-Dawley rat at 22.3 mg/kg, po; format: ADME, organism-based; parameters: dose 22.3 mg/kg, route oral; conditions: in vivo
# [37] = system: Plasmodium berghei; test: Antimalarial activity against Plasmodium berghei ANKA expressing GFP infected in Sprague-Dawley rat assessed as reduction in parasitemia at 100 mg/kg, po administered as single dose measured on day 3 post-infection by flow cytometry; format: functional; parameters: scale not given: the % may be the effect or the level left
# [38] = system: Plasmodium berghei; test: Antimalarial activity against Plasmodium berghei ANKA expressing GFP infected in Sprague-Dawley rat assessed as reduction in parasitemia at 3 mg/kg, po administered as single dose measured on day 3 post-infection by flow cytometry; format: functional; parameters: scale not given: the % may be the effect or the level left
# [39] = Oral bioavailability in Sprague-Dawley rat at 5 mg/kg; format: ADME, organism-based; conditions: in vivo
# [40] = Apparent terminal half life in Sprague-Dawley rat at 5 mg/kg, po; format: ADME, organism-based; parameters: dose 5 mg/kg, route oral; conditions: in vivo, read-out: betat1/2(app) (converted)
# [41] = Apparent terminal half life in Sprague-Dawley rat at 22.3 mg/kg, po; format: ADME, organism-based; parameters: dose 22.3 mg/kg, route oral; conditions: in vivo, read-out: betat1/2(app) (converted)
# [42] = Oral bioavailability in Sprague-Dawley rat at 22.3 mg/kg; format: ADME, organism-based; conditions: in vivo
smiles,measurement,setting,value
CS(=O)(=O)c1ccc(-c2cnc(N)c(-c3ccc(C(F)(F)F)cc3)c2)cc1,solubility kinetic at 0.5 h,[1],< 1.6 µg/mL
same,Cmax,[2],1000 nM
same,half-life,[3],678 min
same,clearance,[4],29 mL/min/kg
same,microsomal CLint at 1 µM,[5],< 7 µL/min/mg
same,AUC(0-inf),[6],6.98 µM·h
same,Activity,[7],98%
same,MSD,[8],9 days
same,Activity,[9],Non-toxic
same,AUC(0-inf),[10],8.27 µM·h
same,half-life at 1 µM,[11],> 250 min
same,IC50,[12],19 nM
same,chromatographic logD,[13],3.4
same,Tmax,[14],3.25 h
same,bioavailability,[15],26%
same,Activity,[16],Toxic
same,MSD,[17],15 days
same,Activity,[18],97.3%
same,fraction unbound,[19],0.038
same,IC50,[20],20 nM
same,Vd,[21],8 L/kg
same,half-life,[22],360 min
COc1ccc(-c2cc(-c3ccc(S(C)(=O)=O)cc3)cnc2N)cn1,Tmax,[23],1.75 h
same,half-life,[3],480 min
same,clearance,[4],16.7 mL/min/kg
same,microsomal CLint at 1 µM,[5],< 28 µL/min/mg
same,AUC(0-inf),[6],13.2 µM·h
same,ED50,[24],4.7 mg/kg
same,ED90,[24],17 mg/kg
same,AUC(0-inf),[25],11.8 µM·h
same,Activity,[7],82%
same,MSD,[8],7 days
same,MSD,[26],>30 days
same,MSD,[27],21 days
same,AUC(0-inf),[28],115 µM·h
same,half-life at 1 µM,[11],> 99 min
same,chromatographic logD,[13],2.2
same,Activity,[29],99.8%
same,Cmax,[30],5.4 µM
same,Activity,[31],inactive
same,Activity,[32],Active
same,clearance,[33],18.3 mL/min/kg
same,MSD,[34],3 days
same,MSD,[17],8 days
same,Activity,[18],99%
same,Tmax,[35],15 min
same,Cmax,[36],21 µM
same,Vd,[21],4.3 L/kg
same,Activity,[37],>99.3%
same,Activity,[38],<40%
same,bioavailability,[39],83%
same,half-life,[40],402 min
same,half-life,[41],390 min
same,bioavailability,[42],> 100%
